According to ChEMBL document CHEMBL1144449, “Design, synthesis, and evaluation of orally active 4-(2,4-difluoro-5-(methoxycarbamoyl)phenylamino)pyrrolo[2,1-f][1,2,4]triazines as dual vascular endothelial growth factor receptor-2 and fibroblast growth factor receptor-1 inhibitors” (J Med Chem, 2005):
pIC50: −log10 of the molar value.

Columns and labels:
[1] = molecular target: Vascular endothelial growth factor receptor (Homo sapiens, UniProt P17948+P35916+P35968); experiment: Inhibition of VEGF-stimulated human umbilical vein endothelial cell proliferation; assay type: functional, cell-based
[2] = molecular target: Vascular endothelial growth factor receptor 2 (Homo sapiens, UniProt P35968); experiment: Inhibition of human vascular endothelial growth factor receptor 2 kinase activity
Sequence of Vascular endothelial growth factor receptor 2 (P35968 whole entry): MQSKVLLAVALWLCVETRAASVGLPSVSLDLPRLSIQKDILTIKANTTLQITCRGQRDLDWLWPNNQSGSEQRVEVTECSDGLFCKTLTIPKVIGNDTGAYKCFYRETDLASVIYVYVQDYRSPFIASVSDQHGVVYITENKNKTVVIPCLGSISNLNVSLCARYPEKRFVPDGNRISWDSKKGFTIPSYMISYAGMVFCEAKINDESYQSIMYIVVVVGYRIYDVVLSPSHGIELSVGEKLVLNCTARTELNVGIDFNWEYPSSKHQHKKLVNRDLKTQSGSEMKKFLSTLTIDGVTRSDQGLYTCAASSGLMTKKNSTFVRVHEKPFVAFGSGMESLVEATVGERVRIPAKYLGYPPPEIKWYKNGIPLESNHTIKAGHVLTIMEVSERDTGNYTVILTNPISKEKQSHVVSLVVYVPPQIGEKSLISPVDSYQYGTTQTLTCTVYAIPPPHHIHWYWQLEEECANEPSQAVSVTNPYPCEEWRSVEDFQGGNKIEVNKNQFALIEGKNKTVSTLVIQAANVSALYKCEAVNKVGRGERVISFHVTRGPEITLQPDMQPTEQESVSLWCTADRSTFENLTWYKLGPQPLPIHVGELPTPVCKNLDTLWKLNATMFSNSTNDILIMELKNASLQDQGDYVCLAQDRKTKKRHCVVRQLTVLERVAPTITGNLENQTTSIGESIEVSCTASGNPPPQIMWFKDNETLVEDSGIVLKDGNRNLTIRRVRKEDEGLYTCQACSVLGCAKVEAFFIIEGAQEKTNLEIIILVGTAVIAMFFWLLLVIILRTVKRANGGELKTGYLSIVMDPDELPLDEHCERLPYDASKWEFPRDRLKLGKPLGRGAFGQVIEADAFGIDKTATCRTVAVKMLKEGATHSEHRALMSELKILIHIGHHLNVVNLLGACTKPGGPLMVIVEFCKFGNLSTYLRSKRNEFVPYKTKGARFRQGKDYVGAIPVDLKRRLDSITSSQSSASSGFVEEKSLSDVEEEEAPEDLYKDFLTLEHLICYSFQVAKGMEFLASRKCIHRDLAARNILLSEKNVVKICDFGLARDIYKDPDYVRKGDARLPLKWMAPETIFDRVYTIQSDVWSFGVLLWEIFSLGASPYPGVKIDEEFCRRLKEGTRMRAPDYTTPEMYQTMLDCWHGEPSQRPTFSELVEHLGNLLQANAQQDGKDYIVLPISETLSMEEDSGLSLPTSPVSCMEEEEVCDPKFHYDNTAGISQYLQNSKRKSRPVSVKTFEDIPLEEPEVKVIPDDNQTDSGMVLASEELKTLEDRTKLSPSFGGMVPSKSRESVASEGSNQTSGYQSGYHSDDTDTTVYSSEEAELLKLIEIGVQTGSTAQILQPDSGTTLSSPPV

Cytochrome P450 3A4 = Cytochrome P450 3A4 (Homo sapiens, UniProt P08684); experiment: Inhibitory concentration against human cytochrome P450 3A4; assay type: ADME
[3] = molecular target: Fibroblast growth factor receptor 1 (Homo sapiens, UniProt P11362); experiment: Inhibition of human fibroblast growth factor receptor 1
Sequence of Fibroblast growth factor receptor 1 (P11362 whole entry): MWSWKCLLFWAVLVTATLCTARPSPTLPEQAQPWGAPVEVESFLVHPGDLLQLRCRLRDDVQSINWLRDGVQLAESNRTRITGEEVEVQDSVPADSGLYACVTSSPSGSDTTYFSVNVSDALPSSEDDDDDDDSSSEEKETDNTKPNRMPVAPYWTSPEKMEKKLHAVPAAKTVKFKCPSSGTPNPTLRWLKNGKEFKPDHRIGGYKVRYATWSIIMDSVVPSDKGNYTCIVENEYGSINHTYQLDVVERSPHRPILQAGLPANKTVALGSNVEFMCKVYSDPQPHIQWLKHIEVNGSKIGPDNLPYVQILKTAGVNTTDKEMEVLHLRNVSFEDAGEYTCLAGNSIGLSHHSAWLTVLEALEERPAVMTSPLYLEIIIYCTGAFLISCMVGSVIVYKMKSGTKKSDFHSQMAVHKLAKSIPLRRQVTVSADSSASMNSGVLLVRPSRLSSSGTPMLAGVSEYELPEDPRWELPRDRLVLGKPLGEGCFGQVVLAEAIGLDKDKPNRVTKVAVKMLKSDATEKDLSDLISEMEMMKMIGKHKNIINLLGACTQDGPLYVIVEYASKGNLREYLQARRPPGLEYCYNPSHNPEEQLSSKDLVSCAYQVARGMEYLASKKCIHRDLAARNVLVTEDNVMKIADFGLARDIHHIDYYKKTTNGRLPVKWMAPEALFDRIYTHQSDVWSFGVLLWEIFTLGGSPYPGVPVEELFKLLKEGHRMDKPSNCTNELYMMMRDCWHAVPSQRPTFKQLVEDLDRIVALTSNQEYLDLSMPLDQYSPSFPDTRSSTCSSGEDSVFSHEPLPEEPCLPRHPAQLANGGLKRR

Cytochrome P450 1A2 = molecular target: T1, Cytochrome P450 1A2 (Homo sapiens, UniProt P05177); experiment: Inhibitory concentration against human cytochrome P450 1A2; assay type: ADME
T1 sequence (P05177 whole entry): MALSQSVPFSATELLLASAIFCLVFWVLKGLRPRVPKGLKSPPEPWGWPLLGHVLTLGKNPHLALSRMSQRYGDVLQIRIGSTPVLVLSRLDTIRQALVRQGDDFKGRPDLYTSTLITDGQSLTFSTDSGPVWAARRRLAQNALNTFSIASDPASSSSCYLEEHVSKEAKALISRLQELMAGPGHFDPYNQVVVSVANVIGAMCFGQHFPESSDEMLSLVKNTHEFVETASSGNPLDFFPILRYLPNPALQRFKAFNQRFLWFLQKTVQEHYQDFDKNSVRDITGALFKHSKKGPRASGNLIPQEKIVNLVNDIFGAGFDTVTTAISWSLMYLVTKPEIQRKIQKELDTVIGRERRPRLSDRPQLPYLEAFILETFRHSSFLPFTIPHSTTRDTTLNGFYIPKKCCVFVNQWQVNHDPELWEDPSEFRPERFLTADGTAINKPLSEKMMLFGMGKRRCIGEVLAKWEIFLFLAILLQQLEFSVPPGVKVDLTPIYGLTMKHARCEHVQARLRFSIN

[4] = molecular target: Fibroblast growth factor receptor (Homo sapiens, UniProt P22607+P11362+P22455+P21802); experiment: Inhibition of FGF-stimulated human umbilical vein endothelial cell proliferation; assay type: functional, cell-based
Cytochrome P450 2C9 = Cytochrome P450 2C9 (Homo sapiens, UniProt P11712); experiment: Inhibitory concentration against human cytochrome P450 2C9; assay type: ADME
[5] = molecular target: Receptor tyrosine-protein kinase erbB-2 (Homo sapiens, UniProt P04626); experiment: Inhibition against human HER2 kinase
Sequence of Receptor tyrosine-protein kinase erbB-2 (P04626 whole entry): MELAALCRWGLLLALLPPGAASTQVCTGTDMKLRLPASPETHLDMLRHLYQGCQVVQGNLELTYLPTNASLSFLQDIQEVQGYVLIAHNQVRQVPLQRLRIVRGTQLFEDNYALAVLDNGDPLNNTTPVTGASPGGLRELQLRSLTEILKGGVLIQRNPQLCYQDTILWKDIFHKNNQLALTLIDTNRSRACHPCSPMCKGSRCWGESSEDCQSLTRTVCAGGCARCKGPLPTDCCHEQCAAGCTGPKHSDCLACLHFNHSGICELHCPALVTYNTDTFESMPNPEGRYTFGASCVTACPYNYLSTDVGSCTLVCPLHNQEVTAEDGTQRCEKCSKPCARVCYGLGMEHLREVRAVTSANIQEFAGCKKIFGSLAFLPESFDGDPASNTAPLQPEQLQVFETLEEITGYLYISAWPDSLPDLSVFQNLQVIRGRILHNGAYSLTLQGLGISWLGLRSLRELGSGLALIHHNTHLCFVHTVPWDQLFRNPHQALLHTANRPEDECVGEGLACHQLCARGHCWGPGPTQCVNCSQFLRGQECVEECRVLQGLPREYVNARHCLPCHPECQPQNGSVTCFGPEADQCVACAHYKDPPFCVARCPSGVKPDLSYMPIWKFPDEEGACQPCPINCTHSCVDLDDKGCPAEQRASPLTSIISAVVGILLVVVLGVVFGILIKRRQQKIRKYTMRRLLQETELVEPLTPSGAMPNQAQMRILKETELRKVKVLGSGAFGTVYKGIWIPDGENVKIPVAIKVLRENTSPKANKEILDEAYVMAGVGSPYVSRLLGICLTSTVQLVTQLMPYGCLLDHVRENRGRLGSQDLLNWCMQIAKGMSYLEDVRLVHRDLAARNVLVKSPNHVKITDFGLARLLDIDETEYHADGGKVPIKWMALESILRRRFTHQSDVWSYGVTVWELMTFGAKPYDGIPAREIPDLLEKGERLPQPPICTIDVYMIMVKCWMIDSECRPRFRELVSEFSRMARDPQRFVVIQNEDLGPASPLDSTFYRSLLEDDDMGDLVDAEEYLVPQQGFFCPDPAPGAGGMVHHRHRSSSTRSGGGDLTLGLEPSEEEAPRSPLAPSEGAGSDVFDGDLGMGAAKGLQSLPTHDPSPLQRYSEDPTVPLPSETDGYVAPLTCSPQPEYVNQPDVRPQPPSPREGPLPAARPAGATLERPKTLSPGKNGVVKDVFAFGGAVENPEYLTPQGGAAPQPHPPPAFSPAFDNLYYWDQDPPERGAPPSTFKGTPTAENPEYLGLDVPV

[6] = molecular target: Protein kinase C alpha type (Homo sapiens, UniProt P17252); experiment: Inhibition of human protein kinase C alpha
[7] = molecular target: Insulin-like growth factor 1 receptor (Homo sapiens, UniProt P08069); experiment: Inhibition of human insulin-like growth factor I receptor
Sequence of Insulin-like growth factor 1 receptor (P08069 31-736 limits assumed): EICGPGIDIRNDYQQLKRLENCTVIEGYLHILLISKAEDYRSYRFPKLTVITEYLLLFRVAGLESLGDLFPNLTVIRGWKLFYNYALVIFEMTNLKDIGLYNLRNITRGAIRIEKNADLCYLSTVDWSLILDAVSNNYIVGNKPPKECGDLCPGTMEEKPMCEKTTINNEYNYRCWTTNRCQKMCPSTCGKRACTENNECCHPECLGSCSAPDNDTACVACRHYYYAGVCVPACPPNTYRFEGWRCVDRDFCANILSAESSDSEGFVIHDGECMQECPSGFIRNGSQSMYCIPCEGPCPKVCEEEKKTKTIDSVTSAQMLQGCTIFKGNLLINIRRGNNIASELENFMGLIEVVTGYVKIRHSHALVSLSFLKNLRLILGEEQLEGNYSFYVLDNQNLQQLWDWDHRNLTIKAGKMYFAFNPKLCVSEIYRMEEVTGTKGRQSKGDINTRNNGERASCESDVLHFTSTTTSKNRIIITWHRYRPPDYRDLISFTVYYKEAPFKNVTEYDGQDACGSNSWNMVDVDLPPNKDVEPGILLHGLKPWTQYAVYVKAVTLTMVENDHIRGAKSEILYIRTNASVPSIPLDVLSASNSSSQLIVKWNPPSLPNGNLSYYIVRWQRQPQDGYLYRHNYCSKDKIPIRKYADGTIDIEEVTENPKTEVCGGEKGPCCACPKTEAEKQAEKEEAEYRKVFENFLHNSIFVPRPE
Sequence of Insulin-like growth factor 1 receptor (P08069 741-1367 limits assumed): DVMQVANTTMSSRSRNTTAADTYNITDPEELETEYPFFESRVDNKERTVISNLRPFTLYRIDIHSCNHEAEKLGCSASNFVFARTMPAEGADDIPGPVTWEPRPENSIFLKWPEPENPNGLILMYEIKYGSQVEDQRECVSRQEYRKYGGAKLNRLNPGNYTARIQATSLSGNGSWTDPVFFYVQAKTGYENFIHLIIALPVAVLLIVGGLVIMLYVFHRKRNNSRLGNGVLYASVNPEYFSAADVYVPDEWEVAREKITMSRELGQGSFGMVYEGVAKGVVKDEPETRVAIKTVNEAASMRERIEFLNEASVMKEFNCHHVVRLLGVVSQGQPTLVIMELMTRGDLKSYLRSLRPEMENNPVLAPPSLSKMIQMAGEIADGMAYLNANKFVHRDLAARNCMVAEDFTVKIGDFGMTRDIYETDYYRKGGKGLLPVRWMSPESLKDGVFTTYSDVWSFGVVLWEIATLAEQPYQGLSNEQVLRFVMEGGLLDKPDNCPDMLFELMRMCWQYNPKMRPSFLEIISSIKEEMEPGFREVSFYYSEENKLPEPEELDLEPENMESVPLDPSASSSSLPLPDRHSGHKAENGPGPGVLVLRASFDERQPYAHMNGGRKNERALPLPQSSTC

[8] = molecular target: Cyclin-dependent kinase 2 (Homo sapiens, UniProt P24941); experiment: Inhibition of human cyclin-dependent kinase 2
[9] = Plasma level after 1 hour of oral administration of 50 mg/kg compound in mouse; assay type: ADME, organism-based; design: dose 50 mg/kg, route oral; details: read-out: Plasma level
[10] = Plasma level after 4 hours of oral administration of 50 mg/kg compound in mouse; assay type: ADME, organism-based; design: dose 50 mg/kg, route oral; details: read-out: Plasma level
[11] = molecular target: Tyrosine-protein kinase Lck (Homo sapiens, UniProt P06239); experiment: Inhibition of human p56 lck tyrosine kinase
[12] = molecular target: Platelet-derived growth factor receptor beta (Homo sapiens, UniProt P09619); experiment: Inhibition of human platelet-derived growth factor receptor beta
Mus musculus [13] = experiment: Tumor growth inhibition determined after oral administration of 100 mg/kg/day compound against established L2987 human lung carcinoma xenografts implanted subcutaneously in athymic mouse; assay type: functional; details: read-out: TGI
Mus musculus [14] = experiment: Tumor growth inhibition determined after oral administration of […] mg/kg/day compound against established L2987 human lung carcinoma xenografts implanted subcutaneously in athymic mouse; assay type: functional; details: read-out: TGI
Mus musculus [15] = experiment: Tumor growth inhibition determined after oral administration of 50 mg/kg/day compound against established L2987 human lung carcinoma xenografts implanted subcutaneously in athymic mouse; assay type: functional; details: read-out: TGI

Compound	IC50 [1] [nM]	pIC50 [2]	IC50 [4] [nM]	pIC50 [3]	other results
CONC(=O)c1cc(Nc2ncnn3cc(-c4ncc(C)o4)c(C(C)C)c23)c(F)cc1F	1.1	8.10	4	7.70	pIC50 (Cytochrome P450 3A4): 5.29; pIC50 (Cytochrome P450 1A2): 7.19; pIC50 (Cytochrome P450 2C9): 5.44
CCOC(=O)c1cn2ncnc(Nc3cc(C(=O)NOC(C)C)c(F)cc3F)c2c1C(C)C		6.46			
CCOC(=O)c1cn2ncnc(Nc3cc(C(=O)NOCC(C)C)c(F)cc3F)c2c1C(C)C		5.92			
CONC(=O)c1cc(Nc2ncnn3cc(-c4nnc(C(C)C)o4)c(C(C)C)c23)c(F)cc1F	18	7.66	1	7.41	
CONC(=O)c1cc(Nc2ncnn3cc(NC(=O)OCCCS(C)(=O)=O)c(C(C)C)c23)c(F)cc1F				7.24	pIC50 [5]: 5.28; pIC50 [6]: < 4.30; pIC50 [7]: < 4.60; pIC50 [8]: < 4.30; concentration at 1 h [9]: 7.9 µM; concentration at 4 h [10]: 13.8 µM; pIC50 [11]: 5.29; pIC50 [12]: < 5.70
CONC(=O)c1cc(Nc2ncnn3cc(-c4nc(C)no4)c(C(C)C)c23)c(F)cc1F	6.8	7.31	7.6	6.96	
CONC(=O)c1cc(Nc2ncnn3cc(-c4nnc(C5CC5)o4)c(C(C)C)c23)c(F)cc1F	3.6	7.96	5.3	7.85	
CONC(=O)c1cc(Nc2ncnn3cc(-c4nnc(N(C)C)o4)c(C(C)C)c23)c(F)cc1F	6.7	7.96	7.3	7.74	

Continued, in another order:

IC50 [1] [nM]	pIC50 [2]	IC50 [4] [nM]	Compound	pIC50 [3]	other results
	6.57		CCOC(=O)c1cn2ncnc(Oc3cccc(C(=O)NOC)c3)c2c1C(C)C		
	6.74		CONC(=O)c1cc(Nc2ncnn3cc(NC(=O)OCc4ccccc4)c(C(C)C)c23)c(F)cc1F		
	6.89		CCOC(=O)c1cn2ncnc(Nc3cccc(C(=O)NOC)c3)c2c1C(C)C		
	6.92		CCOC(=O)c1cn2ncnc(Nc3ccc(C)c(C(=O)NOC)c3)c2c1C(C)C		
		21	CONC(=O)c1cc(Nc2ncnn3cc(-c4nnc(C(F)F)o4)c(C(C)C)c23)c(F)cc1F	7.00	pIC50 [5]: < 5.00; inhibition in vivo at 100 mg/kg/day (Mus musculus [13]): 46.5%; pIC50 [6]: < 4.30; inhibition in vivo at 150 mg/kg/day (Mus musculus [14]): 88.4%; pIC50 [7]: < 4.60; pIC50 [8]: < 4.30; concentration at 1 h [9]: 187 µM; inhibition in vivo at 50 mg/kg/day (Mus musculus [15]): 30%; concentration at 4 h [10]: 155 µM; pIC50 [12]: < 5.70
2.1	7.64	6.6	CONC(=O)c1cc(Nc2ncnn3cc(-c4nnc(CC(C)C)o4)c(C(C)C)c23)c(F)cc1F	7.48	
50	7.15	46	CONC(=O)c1cc(Nc2ncnn3cc(-c4n[nH]c(C)n4)c(C(C)C)c23)c(F)cc1F	7.30	
91	7.11	54	CONC(=O)c1cc(Nc2ncnn3cc(-c4nnco4)c(C(C)C)c23)c(F)cc1F	6.80	
31	7.18		CCOC(=O)Nc1cn2ncnc(Nc3cc(C(=O)NOC)c(F)cc3F)c2c1C(C)C		
19	7.44		CONC(=O)c1cc(Nc2ncnn3cc(NC(=O)OC4CCN(C)CC4)c(C(C)C)c23)c(F)cc1F		concentration at 1 h [9]: 5.1 µM; concentration at 4 h [10]: 3 µM
